Measured values as given in PubChem BioAssay AID248 (DTP/NCI, 2004).
Toxic doses and inconclusive results are not listed. No stated cut-off is given here; in the data, active means T/C of 150% or more; inactive means T/C below 125%.

Test system: L1210 leukemia ip in BDF1 mice, survival T/C
Experiment: NCI In Vivo Anticancer Drug Screen. Data for tumor model L1210 Leukemia (intraperitoneal) in B6D2F1 (BDF1) mice
Settings: endpoint: mean survival time, higher = longer survival
Procedure, shortened: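 Ratio derived from survival: compound-dosed mice over vehicle-dosed mice, all bearing a transplantable tumor.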

[1] = dose: 100.0 mg/kg/injection, schedule: Q01DX009 (ip), vehicle: saline with Tween-80
[2] = dose: 200.0 mg/kg/injection, schedule: Q01DX009 (ip), vehicle: saline with Tween-80
[3] = dose: 400.0 mg/kg/injection, schedule: Q01DX009 (ip), vehicle: saline with Tween-80
[4] = dose: 50.0 mg/kg/injection, schedule: Q01DX009 (ip), vehicle: saline with Tween-80
[5] = dose: 100.0 mg/kg/injection, schedule: Q01DX001 (ip), vehicle: saline
[6] = dose: 200.0 mg/kg/injection, schedule: Q01DX001 (ip), vehicle: saline
[7] = dose: 100.0 mg/kg/injection, schedule: Q04DX003 (ip), vehicle: saline

Measured: T/C

O=C(/C=C\c1ccc(Cl)cc1)c1ccccc1
inactive: [1] 91 % of control | dose: 100.0 mg/kg/injection, schedule: Q04DX002 (ip), vehicle: Klucel (hydroxypropylcellulose) (HPC) 89 % of control | dose: 100.0 mg/kg/injection, schedule: Q04DX002 (ip), vehicle: gum acacia 98 % of control | [2] 91 % of control | dose: 200.0 mg/kg/injection, schedule: Q04DX002 (ip), vehicle: Klucel (hydroxypropylcellulose) (HPC) 96 % of control | dose: 200.0 mg/kg/injection, schedule: Q04DX002 (ip), vehicle: gum acacia 95 % of control | [3] 86 % of control | dose: 400.0 mg/kg/injection, schedule: Q04DX002 (ip), vehicle: Klucel (hydroxypropylcellulose) (HPC) 96 % of control | dose: 400.0 mg/kg/injection, schedule: Q04DX002 (ip), vehicle: gum acacia 91 % of control

O=C(OCC1OC(n2nnc3ccnc(Cl)c32)C(OC(=O)c2ccccc2)C1OC(=O)c1ccccc1)c1ccccc1 (stereo unspecified)
inactive: dose: 50.0 mg/kg/injection, schedule: Q01DX005 (ip), vehicle: saline with Tween-80 93 % of control | dose: 100.0 mg/kg/injection, schedule: Q01DX005 (ip), vehicle: saline with Tween-80 98 % of control | dose: 200.0 mg/kg/injection, schedule: Q01DX005 (ip), vehicle: saline with Tween-80 104 % of control

NCCNc1ncnc2c1ncn2C1OC(CO)C(O)C1O (stereo unspecified)
inactive: dose: 6.25 mg/kg/injection, schedule: Q01DX009 (ip), vehicle: saline 115 % of control | dose: 12.5 mg/kg/injection, schedule: Q01DX005 (ip), vehicle: saline 101 % of control | dose: 12.5 mg/kg/injection, schedule: Q01DX009 (ip), vehicle: saline 111 % of control | dose: 25.0 mg/kg/injection, schedule: Q01DX005 (ip), vehicle: saline 100 % of control | dose: 25.0 mg/kg/injection, schedule: Q01DX009 (ip), vehicle: saline 117 % of control | dose: 50.0 mg/kg/injection, schedule: Q01DX005 (ip), vehicle: saline 97 % of control | dose: 100.0 mg/kg/injection, schedule: Q01DX005 (ip), vehicle: saline 86 % of control

c1ccc(C2OC3(CCCCC3)C[N+]23CCCC3)cc1 (stereo unspecified)
inactive: dose: 25.0 mg/kg/injection, schedule: Q01DX009 (ip), vehicle: saline with Tween-80 109 % of control | [4] 107 % of control | dose: 100.0 mg/kg/injection, schedule: Q04DX003 (ip), vehicle: saline with Tween-80 97 % of control

CC=C(C)c1ccccc1 (mixture of isomers)
inactive: [4] 118 % of control | [1] 123 % of control | [2] 94 % of control

Oc1ccccc1C=NCc1ccccc1
inactive: dose: 100.0 mg/kg/injection, schedule: Q04DX003 (ip), vehicle: Klucel (hydroxypropylcellulose) (HPC) 100 % of control | dose: 200.0 mg/kg/injection, schedule: Q04DX003 (ip), vehicle: Klucel (hydroxypropylcellulose) (HPC) 92 % of control | dose: 400.0 mg/kg/injection, schedule: Q04DX003 (ip), vehicle: Klucel (hydroxypropylcellulose) (HPC) 96 % of control

Nc1ccc(N=Nc2ccc(OCCN(CCO)CCO)cc2)c(N)n1
inactive: [5] 93 % of control | [6] 98 % of control

Cc1ccc([N+](=O)[O-])cc1NC(=O)NCc1ccc(Cl)cc1
inactive: [1] 87 % of control | [2] 106 % of control | [3] 95 % of control

CCC1c2ccc3cc(OC)ccc3c2C(=O)C1CC(=O)O (stereo unspecified)
inactive: [5] 93 % of control | [6] 107 % of control

OC(c1ccccc1)(c1ccccc1)C1CCCCC1=C(c1ccccc1)c1ccccc1 (stereo unspecified)
inactive: [5] 88 % of control | dose: 100.0 mg/kg/injection, schedule: Q01DX009 (ip), vehicle: saline 86 % of control | [7] 96 % of control | [6] 93 % of control | dose: 200.0 mg/kg/injection, schedule: Q04DX003 (ip), vehicle: saline 94 % of control | dose: 400.0 mg/kg/injection, schedule: Q01DX001 (ip), vehicle: saline 89 % of control | dose: 400.0 mg/kg/injection, schedule: Q01DX009 (ip), vehicle: saline 86 % of control | dose: 400.0 mg/kg/injection, schedule: Q04DX003 (ip), vehicle: saline 96 % of control

BrC1CCCCCCC1Br (stereo unspecified)
inactive: dose: 25.0 mg/kg/injection, schedule: Q04DX003 (ip), vehicle: saline 102 % of control | dose: 50.0 mg/kg/injection, schedule: Q04DX003 (ip), vehicle: saline 96 % of control | [7] 91 % of control
